Results as given in US9890175B2, “Taxane compound, and preparation method and use thereof” (JIANGSU TASLY DIYI PHARMACEUTICAL CO., LTD., priority 2013, dated 2018).

Test: Caco-2 cell monolayer membrane transport assay (Papp and recovery)
Format: in vitro ADME
Conditions: human; for recovery: Caco-2, Recovery rate in mass; for Papp A→B: Caco-2, Papp A-B; for Papp B→A: Caco-2, Papp B-A
Source text: Caco-2 Cell Monolayer Membrane Transport Assay
Human-derived colorectal adenocarcinoma cell line Caco-2 cell monolayer model was used to study the bidirectional transport of the target compounds from the apical (AP) side to the basolateral (BL) side and from BL side to AP side. HPLC was used for quantitative analysis to calculate transport parameters, apparent permeability coefficient (Papp) and the efflux ratio.

recovery (Mean)	recovery (Sample-01)	recovery (Sample-02)	Papp A→B (Mean)	Papp A→B (Sample-01)	Papp A→B (Sample-02)	Papp B→A (Mean)	Papp B→A (Sample-01)	Papp B→A (Sample-02)	SMILES
99%	99.6%	98.5%							CC[C@H]1OC(=O)[C@H](C)[C@@H](O[C@H]2C[C@@](C)(OC)[C@@H](O)[C@H](C)O2)[C@H](C)[C@@H](O[C@@H]2O[C@H](C)C[C@H](N(C)C)[C@H]2O)[C@](C)(O)C[C@@H](C)C(=O)[C@H](C)[C@@H](O)[C@]1(C)O [Erythromycin, reference compound]
99%	103%	95.5%	27.2 ×10⁻⁶ cm/s	28.1 ×10⁻⁶ cm/s	26.2 ×10⁻⁶ cm/s	22.7 ×10⁻⁶ cm/s	22.4 ×10⁻⁶ cm/s	23 ×10⁻⁶ cm/s	COCCc1ccc(OCC(O)CNC(C)C)cc1 (stereo not drawn) [Metoprolol, reference compound]
